SMILES strings stand for the structures. Read-outs that look alike come from different tables or passages of the source. Where only a bound is given, the exact number is not on record here.

We go through 4 molecules from patent US20210382058A1, “PATIENT SELECTION FOR TREATMENT OF MYC POSITIVE CANCERS WITH INDENOISOQUINOLINES” (Purdue Research Foundation, priority 2020, published 2021).

The test system of assay [1] is NCI-60 cancer cell lines. Kind of assay: NCI-60 cancer cell line drug screen (GI50, MGM). The assay is classed as cell-based, human. Conditions: Homo sapiens; for GI50: read-out: Antiproliferative Activities [GI50 (μM)]; for mean GI50 across NCI-60 panel (MGM): average of GI50 values across the entire panel of NCI-60 cancer cell lines. The method, then: Cancer cells were incubated with the test compounds at five concentrations ranging from 100 μM to 10 nM for 48 h. […] The approximate average of GI50 values across the entire panel of NCI-60 cancer cell lines for each compound was recorded as the MGM value.

Assay [2] has as its target T1, human topoisomerase I (Homo sapiens, UniProt P11387).
T1 sequence (P11387 1-765): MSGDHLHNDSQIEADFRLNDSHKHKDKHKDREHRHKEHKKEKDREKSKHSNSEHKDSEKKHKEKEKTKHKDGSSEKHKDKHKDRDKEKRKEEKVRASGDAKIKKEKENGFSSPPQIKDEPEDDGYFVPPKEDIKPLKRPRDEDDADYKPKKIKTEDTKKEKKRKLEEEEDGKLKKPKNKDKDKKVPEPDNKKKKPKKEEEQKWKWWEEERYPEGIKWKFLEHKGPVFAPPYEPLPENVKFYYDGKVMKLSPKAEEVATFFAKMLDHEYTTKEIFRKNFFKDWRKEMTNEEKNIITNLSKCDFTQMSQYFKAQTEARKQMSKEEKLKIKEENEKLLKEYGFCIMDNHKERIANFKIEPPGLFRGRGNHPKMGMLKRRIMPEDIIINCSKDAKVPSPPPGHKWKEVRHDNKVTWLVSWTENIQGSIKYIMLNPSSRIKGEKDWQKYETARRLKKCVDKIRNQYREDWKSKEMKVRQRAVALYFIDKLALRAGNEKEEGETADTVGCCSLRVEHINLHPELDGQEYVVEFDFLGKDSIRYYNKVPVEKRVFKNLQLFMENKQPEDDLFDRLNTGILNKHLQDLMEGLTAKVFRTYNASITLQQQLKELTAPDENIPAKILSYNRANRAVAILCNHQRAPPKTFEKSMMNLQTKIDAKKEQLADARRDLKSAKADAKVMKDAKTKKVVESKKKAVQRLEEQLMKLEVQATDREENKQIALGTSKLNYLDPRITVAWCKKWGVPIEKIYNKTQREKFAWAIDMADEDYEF
The note with it: relative topoisomerase I inhibition levels, previously determined, six levels (0 - 5, +++++ = 5); cited from earlier work.

Assay [3] relates to MYC protein expression in MCF-7 breast cancer cells. In words: Western blotting of MYC protein level in MCF-7 cells. Conditions: Homo sapiens, MCF7; western blotting, MCF-7 cells, 0.5, 1, 2, and 4 μM, 24 hours; read-out: MYC Inhibition. Format: cell-based, human. As to the method: MCF-7 cells were incubated with each compound at four concentrations (0.5, 1, 2, and 4 μM) for 24 hours, and the MYC protein levels were measured (FIG. 3A and FIGS. 12 A to 12 F).
Cells were incubated at 37° C. with 5% CO2.
The gels were cut into strips that contained the proteins of interest and transferred to nitrocellulose membrane (I323002, Invitrogen) using an iBlot 2 Dry Transfer Device (Invitrogen). Immunoblotting was carried out according to standard procedures using the ECL detection method. The membrane was hybridized with the following antibodies: monoclonal anti-MYC (1:1000 dilution; rabbit, Cell Signaling Technology), monoclonal anti-GAPDH (1:2000 dilution; rabbit, Cell Signaling Technology).

The subject of assay [4] is MycG4 (MycPu22 DNA). In words: FRET-melting assay (thermal stabilization of MycG4). The assay is classed as binding, human. Conditions: FIG. 4. The method, then: To confirm the stabilizing effect of indenoisoquinolines on MycG4, the Tm values of MycG4 were measured in the presence of indenoisoquinoline compounds in 10 mM K^+ using dual-3′-FAM- and 5′-TAMRA-labeled MycPu22 DNA by FRET-melting experiments. MycPu22 DNA forms a single MycG4 structure and was used for NMR structure determination (FIG. 1B, right).^43 Therefore, MycPu22 provides the best molecular system for MycG4 and was used in all the subsequent experiments. […] (FIG. 2B). A clear positive correlation was observed between the indenoisoquinolines' ability to induce MycG4 formation and to increase its thermal stability (FIG. 2C).
FRET-melting experiments. The stock solution containing 100 μM 3′-TAMRA (Ex. 555 nm/Em. 580 nm), 5′-FAM (Ex. 490 nm/Em. 520 nm) dual-labeled MycPu22 DNA sequence was first diluted to 2 μM using 7.5 mM KCl, 2.5 mM phosphate buffer, pH 7.0. […] With gradually increasing temperature, the MycPu22 DNA is unfolded from the G4 form to a single-stranded conformation where the FAM is far apart to the TAMRA, which results in a high FAM fluorescence. Melting curves for the determination of Tm were then obtained by recording FAM fluorescence with increasing temperatures from 25 to 95° C. at a rate of 0.9° C./min using a QuantStudio 6 Flex Real-Time PCR System. The Tm values were determined by the maximum of the first derivative plot of the melting curves. […]

[5] abbreviates: A549, Non-Small Cell Lung Cancer, A549/ATCC.
The mark [6] stands for this setting: COLO 205, Colon Cancer, COLO 205.
Where [7] appears, read: EKVX, Non-Small Cell Lung Cancer, EKVX.
The mark [8] stands for this setting: HOP-62, Non-Small Cell Lung Cancer, HOP-62.
Setting [9] is: HOP-92, Non-Small Cell Lung Cancer, HOP-92.
Where [10] appears, read: NCI-H23, Non-Small Cell Lung Cancer, NCI-H23.
The mark [11] stands for this setting: NCI-H226, Non-Small Cell Lung Cancer, NCI-H226.
[12] abbreviates: NCI-H322M, Non-Small Cell Lung Cancer, NCI-H322M.
[13] abbreviates: NCI-H460, Non-Small Cell Lung Cancer, NCI-H460.
Where [14] appears, read: NCI-H522, Non-Small Cell Lung Cancer, NCI-H522.
Where [15] appears, read: HCC 2998, Colon Cancer, HCC-2998.

The GI50 is the concentration at which growth is held to half of that of the control. Regarding `COc1cc2c3c(n(CCCNCCN)c(=O)c2cc1OC)-c1cc2c(cc1C3=O)OCO2` [Compound 46], the GI50 in assay [1] (setting [5]) was 0.74 µM; in assay [1] (CCRF-CEM, Leukemia, CCRF-CEM), less than 0.01 µM; in assay [1] (setting [6]), 0.08 µM; in assay [1] (setting [7]), 2.06 µM; in assay [1] (HCT-116, Colon Cancer, HCT-116), 0.13 µM; in assay [1] (HL-60, Leukemia, HL-60(TB)), 0.25 µM. Further, the GI50 is 0.05 µM in assay [1] (setting [8]); 3.27 µM in assay [1] (setting [9]); 0.28 µM in assay [1] (K562, Leukemia, K-562); less than 0.01 µM in assay [1] (MOLT-4, Leukemia, MOLT-4); 0.05 µM in assay [1] (setting [10]); 0.65 µM in assay [1] (setting [11]). Also, the GI50 in assay [1] (setting [12]) turned out to be 0.53 µM; in assay [1] (setting [13]), 0.43 µM; in assay [1] (setting [14]) it was 0.4 µM; in assay [1] (RPMI-8226, Leukemia, RPMI-8226) it was 0.48 µM. Further, in assay [2], the “Top1 Inhibiton” value is listed as “+++ (strong inhibition, +++, MYC expression inhibited at 0.5 to 1.0 μM)”. The minimal effective concentration in assay [3] is 4 µM.

As to `COc1cc2c3c(n(CCCN(C)C)c(=O)c2cc1OC)-c1cc2c(cc1C3=O)OCO2` [Compound 47], the GI50 is 0.89 µM in assay [1] (setting [5]); less than 0.01 µM in assay [1] (CCRF-CEM, Leukemia, CCRF-CEM); 0.94 µM in assay [1] (setting [6]); 1.46 µM in assay [1] (setting [7]); 0.13 µM in assay [1] (setting [15]); 0.22 µM in assay [1] (HCT-116, Colon Cancer, HCT-116). Moreover, the GI50 in assay [1] (HL-60, Leukemia, HL-60(TB)) is 1.6 µM; in assay [1] (setting [9]) it was 1.3 µM; in assay [1] (Leukemia, SR), less than 0.01 µM; in assay [1] (MOLT-4, Leukemia, MOLT-4) it was less than 0.01 µM; in assay [1] (setting [10]), 0.19 µM; in assay [1] (setting [11]) it was 1.4 µM. In addition, the GI50 in assay [1] (setting [12]) amounted to 1.56 µM; in assay [1] (setting [13]), 0.28 µM; in assay [1] (setting [14]), 0.31 µM; in assay [1] (RPMI-8226, Leukemia, RPMI-8226), 0.3 µM. Further, in assay [1], the mean GI50 across NCI-60 panel (MGM) is 390 nM. Moreover, in assay [3], the minimal effective concentration came out at 2 µM. Besides, the “MycG4 binding and stabilizing activity (SAR)” value in assay [4] was “medium”.

Turning to `COc1cc2c(=O)n(CCCN3CCOCC3)c3c(c2cc1OCCCN1CCCC1)C(=O)c1cc2c(cc1-3)OCO2` [Compound 55], the GI50 in assay [1] (setting [5]) was 0.11 µM; in assay [1] (CCRF-CEM, Leukemia, CCRF-CEM) it was less than 0.01 µM; in assay [1] (setting [6]) it was 0.31 µM; in assay [1] (setting [15]) it was 3.32 µM; in assay [1] (HCT-116, Colon Cancer, HCT-116), 0.16 µM; in assay [1] (HL-60, Leukemia, HL-60(TB)), 0.3 µM. In addition, the GI50 in assay [1] (setting [8]) was 0.19 µM; in assay [1] (setting [9]), 1.66 µM; in assay [1] (K562, Leukemia, K-562) it was 0.19 µM; in assay [1] (Leukemia, SR), less than 0.01 µM; in assay [1] (MOLT-4, Leukemia, MOLT-4) it was less than 0.01 µM; in assay [1] (setting [10]), 0.71 µM. Also, the GI50 in assay [1] (setting [11]) was determined as 2.12 µM; in assay [1] (setting [12]) it was 1 µM; in assay [1] (setting [13]), 0.03 µM; in assay [1] (setting [14]), 0.04 µM; in assay [1] (RPMI-8226, Leukemia, RPMI-8226), 0.25 µM. In assay [1], this molecule registered a mean GI50 across NCI-60 panel (MGM) of 340 nM. For the same molecule, in assay [2], the “Top1 Inhibiton” value is on record as “++ (medium inhibition, ++, MYC expression inhibited at 2.0 μM, or no clear dose-dependent MYC inhibition)”. Further, in assay [3], the minimal effective concentration is 4 µM.

In the case of `O=C1c2ccccc2-c2c1c1ccccc1c(=O)n2CCCN1CCOCC1` [Compound 16], in assay [4], the “MycG4 binding and stabilizing activity (SAR)” value was “weakened”.
